Patent US9511136B2, “Immunogenic compounds comprising HIV GP41 peptide coupled to CRM197 carrier protein” ([…], priority 2012, dated 2016)
Values joined by “and” are separate entries in the source; they are usually repeats but may differ in a detail not shown here. Equal entries are not always repeated.

Tested on: NKp44L at the surface of activated human CD4+ T cells
Assay: Inhibition by antiserums of 3S16Nter-induced NKp44L expression at the surface of activated human CD4+ T cells (cytofluorometry)
Format: cell-based
Source text: The aim of Example 5 was to test the ability of the antiserums of a rat vaccinated with the adjuvanted 3S drug substance to inhibit the expression of NKp44L at the surface of activated human CD4+ T cells induced by the 3S peptide, namely the 3S16Nter peptide.
CD4+ T cells were sorted from human PBMC and activated for 3 days with PHA (Thermo Fisher Scientific, Waltham, USA) then expanded for three days with recombinant IL-2 (Novartis, Horsham, United Kingdom). The cells were put in presence of 3S16Nter peptides (Covalab, Villeurbanne, France) in order to induce the expression of NKp44L at their surface.
The expression of NKp44L at the surface of the cells was measured using the intensity of a specific fluorescent staining measured by cytofluorometry.
The inhibition of NKp44L expression by the antiserums of vaccinated rat was studied.
The antisera were tested at different dilutions in triplicate.
Human CD4+ T cells were obtained by magnetic separation from a leuko-platelet residue pouch ordered from the EFS (“Etablissement Francais du Sang”).
The human CD4+ T cells were sorted from the pouch according to the following protocol: • 1. The pouch is distributed in four Falcon tubes of 50 mL: 4×15 mL • 2. Complete to 50 mL with RPMI1640+glutamax medium (ref 72400-054, GIBCO, Life Technologies, Carlsbad, USA) • 3. […]

H-CPWNASWSNKSLDDIW-OH [3S16Nter]
PE X-mean fluorescence (no serum, with 3S16Nter peptides (5 μg/mL), single wells): 59.6 and 64.7 | NKp44L expression on activated CD4+ T cells (mean level) (without serum, in the presence of 3S16Nter peptides): 62
